Data published in paper PMC6100724, “Proteome‐wide analysis of phospho‐regulated PDZ domain interactions” (Molecular Systems Biology, 2018).

Legend:
Experiment in all cases: Phosphomimetic ProP-PD selection with NGS
[1] = system: Scribble PDZ2; type: binding, human; conditions: bait Scribble PDZ2
Experimental: (§1) Phage selections were carried out for four rounds following a protocol by Huang and Sidhu (Huang & Sidhu, 2011) with minor modifications. Non‐specific binding phage was removed by pre‐selections against immobilized GST throughout the selection. The selections against the (pre‐)phosphorylated wild‐type library were performed in 50 mM HEPES (pH 7.4) and 150 mM NaCl (HBS) following the same procedure after pre‐phosphorylation of the library.
(§2) • Immobilize proteins (15 μg in 100 μl PBS) in a 96‐well MaxiSorp microtiter plate (NUNC) overnight at 4°C. • Start a 2YT culture of E. coli Omnimax supplemented with 100 μg/ml tetracycline to retain the F pilus epitope. • Block the wells with 200 μl 0.5% BSA in PBS for 2 h at 4°C. • Precipitate naïve phage library (10^11 cfu per selection) or amplified phage pool from the previous round of selection by adding one‐fifth the volume of PEG/NaCl. • Incubate on ice for 10 min, and pellet precipitated phage by centrifugation at 5,300 g for 15 min. Resuspend the phage pellet in 100 μl PBS per selection. • Add 100 μl of phage solution to the GST‐coated pre‐selection wells and incubate for 1 h. • Transfer the phage solution to the immobilized target proteins and allow it to bind for 2 h at 8°C. • Wash the plate four times with 200 μl cold wash buffer (PBS, 0.05% Tween‐20). • Elute bound phage by incubation with 100 μl log phase (0.6–0.8 OD600) E. coli Omnimax for 30 min at 37°C with shaking (200 RPM). • Add 10^12 cfu/ml M13K07 helper phage for hyperinfection of the bacteria and incubate as above for 45 min. • Transfer the bacterial culture to 10 ml 2YT supplemented with 50 μg/ml carbenicillin, 25 μg/ml kanamycin, and 300 μM IPTG and incubate overnight at 37°C while shaking. • Perform phage pool ELISA to monitor the progress of the selection as described previously (Huang & Sidhu, 2011).
(§3) The naïve library and the enriched phage pools of the third day of selection were amplified and barcoded by PCR and analyzed by NGS as described elsewhere (McLaughlin & Sidhu, 2013; Ivarsson et al, 2014). The reads were demultiplexed using the barcode sequences and filtered by discarding sequences with a Phred quality score under 30. Sequences were mapped to the original library using Bowtie (Langmead et al, 2009) with two mismatches between reads and library sequence. Nucleotide mutations leading to amino acid substitutions were subsequently removed. Cutoff values of NGS counts were assigned for each pool. PWMs were generated based on the remaining peptides (aligned on the C‐termini) using WebLogo (Crooks et al, 2004).
(§4) However, there was no significant correlation of the actual read counts (selection “strength”) and the initial representation in the library, reflecting the strong selection during phage display (wt+mimetic: P‐value: 0.49, ρ = −0.08, mimetic only: P‐value: 0.069, ρ = −0.2, wt only: P‐value: 0.12, ρ = 0.17). Consequently, the amount of reads for each binder after phage display is not a function of the amount of input reads in the naïve library and no modeling based on the input library frequencies to score the interactions is necessary. To allow for comparison between replicate selections, we used the fraction of NGS reads within a certain set, instead of the absolute number of NGS reads, as the absolute numbers differ between different NGS batches.

[2] = molecular target: T1, Scribble PDZ1 (Homo sapiens, UniProt Q14160); type: binding; conditions: bait Scribble PDZ1; mean of selections 1-3
T1 construct: human Scribble PDZ1 aa 719–829 in; made in house; host or cells: E. coli BL21 Gold (DE3)
T1 sequence (Q14160 719-829): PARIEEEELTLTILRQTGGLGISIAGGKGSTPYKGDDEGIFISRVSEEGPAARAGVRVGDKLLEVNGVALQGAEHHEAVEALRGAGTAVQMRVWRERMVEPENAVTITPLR
Experimental: as §1, §2, §3, §4

[3] = system: DLG1 PDZ1; type: binding, human; conditions: mean of selections 1-3, bait DLG1 PDZ1; for Mean fraction #NGS counts wt peptide / total counts selection: wild type peptide; for Mean fraction #NGS counts mimetic peptide / total count selection: phosphomimetic peptide
Experimental: as §1, §2, §3, §4

[4] = system: Scribble PDZ3; type: binding, human; conditions: bait Scribble PDZ3
Experimental: as §1, §2, §3, §4

[5] = molecular target: T2, DLG1 PDZ2 (Homo sapiens, UniProt Q12959); type: binding; conditions: mean of selections 1-3, bait DLG1 PDZ2
T2 construct: human DLG1 PDZ2 aa 311–407 in a modified pRSET vector 40; made in house; host or cells: E. coli BL21 Gold (DE3)
T2 sequence (Q12959 311-407): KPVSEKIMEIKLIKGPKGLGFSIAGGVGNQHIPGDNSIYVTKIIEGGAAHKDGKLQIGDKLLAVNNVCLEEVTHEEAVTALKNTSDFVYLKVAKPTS
Experimental: as §1, §2, §3, §4

[6] = mean of selections 1 and 2 (selection 3 empty)
[7] = mean of selections 1-3, phosphomimetic peptide
[8] = mean of selections 1-3, wild type peptide

With YPGSPDEWV the “Mean fraction #NGS counts mimetic peptide / total count selection” value [1, 6] was 0.

For SARLWETSI, the “Mean fraction #NGS counts wt peptide / total counts selection” value [2] was 0.005032, the “Mean fraction #NGS counts wt peptide / total counts selection” value [3] was 5.924e-6 and the “Mean fraction #NGS counts wt peptide / total counts selection” value ([4]; mean over selections 1-3) was 0.08665.

With YPASPDSWV the “Mean fraction #NGS counts wt peptide / total counts selection” value [5] was 0.0001112 and the “Mean fraction #NGS counts wt peptide / total counts selection” value [1, 6] was 0.02304.

With TSLTWISTL the “Mean fraction #NGS counts wt peptide / total counts selection” value [1, 6] was 0.

In the case of QEELKLSNL, the “Mean fraction #NGS counts mimetic peptide / total count selection” value [1, 6] is reported as 0.0005697.

GELALLTKL was tested, and the “Mean fraction #NGS counts mimetic peptide / total count selection” value [2] was 0.0001134 and the “Mean fraction #NGS counts mimetic peptide / total count selection” value [3] was 1.514e-5.

With VVHEPETEV the “Mean fraction #NGS counts mimetic peptide / total count selection” value [2] was 4.939e-5 and the “Mean fraction #NGS counts mimetic peptide / total count selection” value [3] was 1.207e-5.

With YPAEPDSWV the “Mean fraction #NGS counts mimetic peptide / total count selection” value [5] was 0 and the “Mean fraction #NGS counts mimetic peptide / total count selection” value [1, 6] was 0.

KLSSIESDV was tested, and the “Mean fraction #NGS counts wt peptide / total counts selection” value [5] was 0.003213, the “Mean fraction #NGS counts wt peptide / total counts selection” value [3] was 2.936e-5 and the “Mean fraction #NGS counts wt peptide / total counts selection” value ([4]; mean over selections 1-3) was 0.0003618.

In the case of RGLESATEL, the “Mean fraction #NGS counts mimetic peptide / total count selection” value ([1]; mean over selections) is reported as 0.001519.

In the case of ERLRVEEDV, the “Mean fraction #NGS counts mimetic peptide / total count selection” value [5] is reported as 0, the “Mean fraction #NGS counts mimetic peptide / total count selection” value [3] is reported as 0 and the “Mean fraction #NGS counts mimetic peptide / total count selection” value ([4]; mean over selections 1-3) is reported as 0.

RSRSIETDV was tested, and the “Mean fraction #NGS counts mimetic peptide / total count selection” value [5] was 0.009109, the “Mean fraction #NGS counts mimetic peptide / total count selection” value [2] was 0.0006725 and the “Mean fraction #NGS counts mimetic peptide / total count selection” value [3] was 0.001793. The “Mean fraction #NGS counts mimetic peptide / total count selection” value [1, 6] was 0.06648 and the “Mean fraction #NGS counts mimetic peptide / total count selection” value ([4]; mean over selections 1-3) was 0.001306.

For SQERMETNM, the “Mean fraction #NGS counts mimetic peptide / total count selection” value [1, 6] was 0.007678 and the “Mean fraction #NGS counts mimetic peptide / total count selection” value ([4]; mean over selections 1-3) was 0.0002907.

For GSLALLTKL, the “Mean fraction #NGS counts wt peptide / total counts selection” value [2] was 0 and the “Mean fraction #NGS counts wt peptide / total counts selection” value [3] was 0.

ERLRVETDV was tested, and the “Mean fraction #NGS counts wt peptide / total counts selection” value [5] was 0.00089, the “Mean fraction #NGS counts wt peptide / total counts selection” value [3] was 0.0001761 and the “Mean fraction #NGS counts wt peptide / total counts selection” value ([4]; mean over selections 1-3) was 0.0002834.

With RGLESATSL the “Mean fraction #NGS counts wt peptide / total counts selection” value ([1]; mean over selections) was 0.

In the case of VVSERISSV, the “Mean fraction #NGS counts wt peptide / total counts selection” value [5] is reported as 0.0005322, the “Mean fraction #NGS counts wt peptide / total counts selection” value [1, 6] is reported as 0.003259 and the “Mean fraction #NGS counts wt peptide / total counts selection” value ([1]; mean over selections) is reported as 0.003259.

In the case of SGEYLVTEV, the “Mean fraction #NGS counts mimetic peptide / total count selection” value ([1]; mean over selections) is reported as 0.001329.

In the case of WVDSYYTEL, the “Mean fraction #NGS counts mimetic peptide / total count selection” value ([1]; mean over selections) is reported as 0.002879 and the “Mean fraction #NGS counts mimetic peptide / total count selection” value [4, 7] is reported as 0.002589.

For VVSERISEV, the “Mean fraction #NGS counts mimetic peptide / total count selection” value [5] was 0.0004709 and the “Mean fraction #NGS counts mimetic peptide / total count selection” value ([1]; mean over selections) was 0.0003798.

In the case of SGSYLVTSV, the “Mean fraction #NGS counts wt peptide / total counts selection” value [5] is reported as 0.0001258, the “Mean fraction #NGS counts wt peptide / total counts selection” value ([5]; wild type peptide) is reported as 0.0001258 and the “Mean fraction #NGS counts wt peptide / total counts selection” value [2] is reported as 4.38e-5. The “Mean fraction #NGS counts wt peptide / total counts selection” value [1, 6] was 0.0003798 and the “Mean fraction #NGS counts wt peptide / total counts selection” value ([1]; mean over selections) was 0.0003798.

In the case of SQSRMSTNM, the “Mean fraction #NGS counts wt peptide / total counts selection” value [1, 6] is reported as 0 and the “Mean fraction #NGS counts wt peptide / total counts selection” value ([4]; mean over selections 1-3) is reported as 0.

In the case of RSRSISTDV, the “Mean fraction #NGS counts wt peptide / total counts selection” value [5] is reported as 0.02018, the “Mean fraction #NGS counts wt peptide / total counts selection” value [2] is reported as 0.0001844 and the “Mean fraction #NGS counts wt peptide / total counts selection” value [1, 6] is reported as 0.001899. The “Mean fraction #NGS counts wt peptide / total counts selection” value ([4]; mean over selections 1-3) was 0.0004544.

With VVHTPETSV the “Mean fraction #NGS counts wt peptide / total counts selection” value [5] was 3.877e-6, the “Mean fraction #NGS counts wt peptide / total counts selection” value [2] was 7.859e-5 and the “Mean fraction #NGS counts wt peptide / total counts selection” value ([1]; mean over selections) was 0. For the same sequence, the “Mean fraction #NGS counts wt peptide / total counts selection” value [4, 8] was 6.402e-5.

For VVHTPETEV, the “Mean fraction #NGS counts mimetic peptide / total count selection” value [5] was 5.021e-5, the “Mean fraction #NGS counts mimetic peptide / total count selection” value [3] was 0.0004495 and the “Mean fraction #NGS counts mimetic peptide / total count selection” value ([1]; mean over selections) was 0.0009495. For the same sequence, the “Mean fraction #NGS counts mimetic peptide / total count selection” value [4, 7] was 1.817e-5.

In the case of EARLWETSI, the “Mean fraction #NGS counts mimetic peptide / total count selection” value [2] is reported as 0.0002246, the “Mean fraction #NGS counts mimetic peptide / total count selection” value [3] is reported as 3.0718e-6 and the “Mean fraction #NGS counts mimetic peptide / total count selection” value ([4]; mean over selections 1-3) is reported as 0.01196.

With YPGEPDSWV the “Mean fraction #NGS counts mimetic peptide / total count selection” value [1, 6] was 0.

In the case of YPGSPDSWV, the “Mean fraction #NGS counts wt peptide / total counts selection” value [5] is reported as 0.0005284, the “Mean fraction #NGS counts wt peptide / total counts selection” value [3] is reported as 3.476e-5 and the “Mean fraction #NGS counts wt peptide / total counts selection” value [1, 6] is reported as 0.2284.

For EEREVTTYL, the “Mean fraction #NGS counts mimetic peptide / total count selection” value [2] was 0.0003719, the “Mean fraction #NGS counts mimetic peptide / total count selection” value [3] was 3.309e-5 and the “Mean fraction #NGS counts mimetic peptide / total count selection” value ([4]; mean over selections 1-3) was 0.000214.

WVDSYYTSL was tested, and the “Mean fraction #NGS counts wt peptide / total counts selection” value ([1]; mean over selections) was 0 and the “Mean fraction #NGS counts wt peptide / total counts selection” value [4, 8] was 0.0003456.

With YPGEPDEWV the “Mean fraction #NGS counts mimetic peptide / total count selection” value [5] was 0 and the “Mean fraction #NGS counts mimetic peptide / total count selection” value [3] was 0.01439.

For KPERISTVV, the “Mean fraction #NGS counts mimetic peptide / total count selection” value ([5]; phosphomimetic peptide) was 0.001492 and the “Mean fraction #NGS counts mimetic peptide / total count selection” value [3] was 0.0005714.

In the case of MRLQSETEV, the “Mean fraction #NGS counts mimetic peptide / total count selection” value [5] is reported as 0.0002982 and the “Mean fraction #NGS counts mimetic peptide / total count selection” value [3] is reported as 3.405e-5.

For VVSERIESV, the “Mean fraction #NGS counts mimetic peptide / total count selection” value [1, 6] was 0.0001899.

For ESREVTTYL, the “Mean fraction #NGS counts wt peptide / total counts selection” value [2] was 2.8202e-5, the “Mean fraction #NGS counts wt peptide / total counts selection” value [3] was 0 and the “Mean fraction #NGS counts wt peptide / total counts selection” value ([4]; mean over selections 1-3) was 5.004e-5.

RSRSISEDV was tested, and the “Mean fraction #NGS counts mimetic peptide / total count selection” value [5] was 3.877e-6, the “Mean fraction #NGS counts mimetic peptide / total count selection” value [2] was 0 and the “Mean fraction #NGS counts mimetic peptide / total count selection” value [3] was 0. The “Mean fraction #NGS counts mimetic peptide / total count selection” value ([4]; mean over selections 1-3) was 0.

For SGEYLVTSV, the “Mean fraction #NGS counts mimetic peptide / total count selection” value [5] was 0 and the “Mean fraction #NGS counts mimetic peptide / total count selection” value [1, 6] was 0.001139.

For QSELKLSNL, the “Mean fraction #NGS counts wt peptide / total counts selection” value [1, 6] was 0.0009495.

In the case of TRLEQHTDV, the “Mean fraction #NGS counts mimetic peptide / total count selection” value [5] is reported as 6.6203e-5 and the “Mean fraction #NGS counts mimetic peptide / total count selection” value [3] is reported as 8.513e-6.

TELTWISTL was tested, and the “Mean fraction #NGS counts mimetic peptide / total count selection” value [1, 6] was 0.002089.

With RREEYSTTV the “Mean fraction #NGS counts mimetic peptide / total count selection” value [5] was 1.723e-5 and the “Mean fraction #NGS counts mimetic peptide / total count selection” value [3] was 1.94e-5.
